The record followed here is patent publication US9700546B2, “Trivalent chromium compounds, compositions and methods of use” (INTERHEALTH NUTRACEUTICALS, INC., priority 2006, dated 2017).

Data set [1] deals with Obese Zucker rats. The data set can be described thus: In vivo assessment in obese Zucker rats: body weight and food intake. Particulars: obese Zucker rats, daily 400 μg Cr(III)/kg, mean; for Food Intake 5 wks: at 5 weeks; for Food Intake 7 wks: at 7 weeks.
Data set [2] deals with Obese Zucker rats. Kind of data set: In vivo assessment in obese Zucker rats: clinical chemistry (AP, BUN, CRT, AST, ALT). Conditions: obese Zucker rats; mean ± SE.
Data set [3] deals with Obese Zucker rats. The data set can be described thus: In vivo assessment in obese Zucker rats: blood lipid profile (total cholesterol, triglycerides, HDL). Conditions: daily 400 μg Cr(III)/kg, 8 weeks, mean.
The subject of data set [4] is Obese Zucker rats. Kind of data set: In vivo assessment in obese Zucker rats: other vascular inflammation markers (cAMP, TNFα, IL-6, OxyDNA). Conditions: obese Zucker rats, daily 400 μg Cr(III)/kg, 8 weeks, mean ± SE; for OxyDNA: oxidative DNA damage.
In data set [5] the test system is Obese Zucker rats. The data set can be described thus: In vivo assessment in obese Zucker rats: vascular inflammation markers (MCP-1, CRP, RBP-4, leptin, ICAM, adiponectin). Conditions: obese Zucker rats, daily 400 μg Cr(III)/kg, 8 weeks, mean; for Adiponectin / CRP / ICAM / MCP-1: plasma, ELISA. A general note: ELISA stands for enzyme-linked immunosorbent assay.
The test system of data set [6] is Obese Zucker rats. The data set can be described thus: In vivo assessment in obese Zucker rats: key biological parameters (fasting glucose, HbA1c, vitamin C, GSH, RBC lipid peroxidation). Particulars: obese Zucker rats, daily 400 μg Cr(III)/kg, 8 weeks, mean; for RBC Lipid Peroxidase: malondialdehyde by thiobarbituric acid; for Fasting Glucose: fasted overnight; for Vitamin C: plasma.

Consider “Chromium Dinicotiante Glutamate [Cr(nic)2Glu]”, for which, in the data set with Obese Zucker rats [1], the “Food Intake 5 wks” value turned out to be 37.51 g/day and the “Food Intake 7 wks” value worked out at 39.92 g/day. Moreover, in the data set on Obese Zucker rats [2], the “BUN/CRT Ratio” value is listed as 44.71. Further, in the data set on Obese Zucker rats [3], the HDL stood at 65.57 mg/dL, the “Total Chol/HDL” value is 2.94 ratio, the “Total Cholesterol” value came out at 192.14 mg/dL and the Triglyceride worked out at 666.50 mg/dL. In the data set with Obese Zucker rats [4], this substance displayed an IL-6 of 89.50 ± 3.22 pg/mL, a cAMP of 29.97 ± 1.43 pmol/mL and an OxyDNA of 43.62 ± 2.69 ng/mL. In the data set with Obese Zucker rats [5], this substance returned a Leptin of 378.02 pg/mL, an RBP-4 of 46720.00 ng/mL, an Adiponectin of 12446.67 ng/mL and a CRP of 519.94 ng/mL. Besides, in the data set with Obese Zucker rats [5], the ICAM stood at 16980.59 pg/mL and the MCP-1 stood at 3197.58 pg/mL. In addition, in the data set with Obese Zucker rats [6], the “RBC Lipid Peroxidase” value is recorded as 2.30 nmol/mL, the “Fasting Glucose” value is reported as 490.43 mg/dL, the GSH was found to be 5.05 µmol/g and the HbA1c was determined as 14.69%. In addition, in the data set with Obese Zucker rats [6], the “Vitamin C” value was 0.14 mg %.
Regarding “Chromium Dinicotinate Tryptophanate [Cr(nic)2Trp]”, in the data set with Obese Zucker rats [1], the “Food Intake 5 wks” value was 40.49 g/day and the “Food Intake 7 wks” value amounted to 40.78 g/day. Moreover, in the data set on Obese Zucker rats [3], the HDL came out at 69.43 mg/dL, the “Total Chol/HDL” value was 2.86 ratio, the “Total Cholesterol” value was 183.17 mg/dL and the Triglyceride came out at 470.67 mg/dL. In the data set on Obese Zucker rats [4], the IL-6 amounted to 92.09 ± 1.89 pg/mL, the cAMP worked out at 30.36 ± 1.48 pmol/mL and the OxyDNA is 39.35 ± 3.48 ng/mL. Also, in the data set with Obese Zucker rats [5], the Leptin stood at 363.21 pg/mL, the RBP-4 is 60017.14 ng/mL, the Adiponectin is 11752.86 ng/mL and the CRP was found to be 617.66 ng/mL. In the data set with Obese Zucker rats [5], the ICAM is 17950.97 pg/mL and the MCP-1 is given as 2607.07 pg/mL. Also, in the data set on Obese Zucker rats [6], the “RBC Lipid Peroxidase” value came to 1.96 nmol/mL, the “Fasting Glucose” value stood at 513.43 mg/dL, the GSH is 5.35 µmol/g and the HbA1c came to 15.55%. Besides, in the data set with Obese Zucker rats [6], the “Vitamin C” value is recorded as 0.13 mg %.
